Measured values as given in patent publication US8383657B2, “Thiazolylidine urea and amide derivatives and methods of use thereof” (Abbott Laboratories, priority 2007, dated 2013).

Assays:
Assay type in all cases: cell-based
α7 NNRs [1] = biological target: T1, α7 NNRs (Homo sapiens, UniProt P36544); test: High-throughput calcium flux (FLIPR) assay using IMR-32 cells expressing endogenous α7 NNRs; design: Emax: dose or concentration left out as unconfirmed
T1 construct: using cells natively expressing α7 NNRs; host or cells: IMR-32 neuroblastoma cells
T1 sequence (P36544 23-502): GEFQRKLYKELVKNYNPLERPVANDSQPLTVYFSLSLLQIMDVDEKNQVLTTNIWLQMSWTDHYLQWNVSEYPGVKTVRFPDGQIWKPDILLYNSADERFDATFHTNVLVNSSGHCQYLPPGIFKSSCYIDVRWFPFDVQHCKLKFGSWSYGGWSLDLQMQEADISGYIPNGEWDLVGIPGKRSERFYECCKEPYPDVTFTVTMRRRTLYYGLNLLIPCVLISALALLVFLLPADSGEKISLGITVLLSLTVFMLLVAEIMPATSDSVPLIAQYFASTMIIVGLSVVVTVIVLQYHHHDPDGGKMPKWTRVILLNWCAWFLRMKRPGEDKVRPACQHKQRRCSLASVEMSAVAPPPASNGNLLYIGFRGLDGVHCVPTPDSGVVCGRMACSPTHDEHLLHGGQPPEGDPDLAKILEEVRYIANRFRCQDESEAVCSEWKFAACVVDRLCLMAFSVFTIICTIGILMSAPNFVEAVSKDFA
Experimental: (ii) High-Throughput Calcium Flux Assays Using Cells Expressing Endogenous α7 NNRs
IMR-32 neuroblastoma cells (ATCC) were grown to confluency in 162 cm^2 tissue culture flasks in minimum essential media supplemented with 10% FBS and 1 mM sodium pyruvate, 0.1 mM non-essential amino acids and 1% antibiotic-antimycotic. The cells were then dissociated using cell dissociation buffer and 40 μl of 3.5×10^5 cells/ml cell suspension was plated (about 15,000 cells/well) into black plates with clear bottom and maintained for 48 hours in a tissue culture incubator at 37° C. under an atmosphere of 5% CO2: 95% air. […] Calcium flux was measured using calcium-3 assay kit (Molecular Devices, Sunnyvale, Calif.) or fluo-4. A stock solution of the dye was prepared by dissolving each vial supplied by the vendor in Hank's balanced salt solution buffer (HBSS) containing 20 mM HEPES. The stock solution was diluted 1:20 using the same buffer before use. After removing the growth media, the cells were loaded with 45 μl of the dye and incubated at room temperature for three hours. Fluorescence measurements were read simultaneously from all the wells by a Fluorometric Imaging Plate Reader (FLIPR) at an excitation wavelength of 480 nm and an emission wavelength of 520 nm. Baseline fluorescence was measured for the first 10 seconds at which 5× concentrations of modulator/test compounds were added to the cell plate and incubated for three minutes. The fluorescence intensity was captured every second for the first 1 minute followed by every 5 seconds for an additional 2 minutes. This procedure was followed by 20 μl of 4× concentration of agonist and readings were taken for a period of three minutes as described above. […] The concentration dependence of changes fluorescence responses was fitted by nonlinear regression analysis (GraphPad Prism, San Diego, Calif.) to obtain EC50 values.
PAMs were identified by measuring fluorescence changes to intracellular calcium in a fluorometric plate reader in the presence of selective α7 NNR agonists using cells natively expressing α7 NNRs. […]

α7 NNRs [2] = biological target: T2, α7 NNRs (Rattus norvegicus, UniProt Q05941); test: High-throughput ERK phosphorylation assay (in-cell western) using PC-12 cells expressing endogenous α7 NNRs
T2 construct: host or cells: PC-12 rat pheochromocytoma cells
T2 sequence (Q05941 23-502): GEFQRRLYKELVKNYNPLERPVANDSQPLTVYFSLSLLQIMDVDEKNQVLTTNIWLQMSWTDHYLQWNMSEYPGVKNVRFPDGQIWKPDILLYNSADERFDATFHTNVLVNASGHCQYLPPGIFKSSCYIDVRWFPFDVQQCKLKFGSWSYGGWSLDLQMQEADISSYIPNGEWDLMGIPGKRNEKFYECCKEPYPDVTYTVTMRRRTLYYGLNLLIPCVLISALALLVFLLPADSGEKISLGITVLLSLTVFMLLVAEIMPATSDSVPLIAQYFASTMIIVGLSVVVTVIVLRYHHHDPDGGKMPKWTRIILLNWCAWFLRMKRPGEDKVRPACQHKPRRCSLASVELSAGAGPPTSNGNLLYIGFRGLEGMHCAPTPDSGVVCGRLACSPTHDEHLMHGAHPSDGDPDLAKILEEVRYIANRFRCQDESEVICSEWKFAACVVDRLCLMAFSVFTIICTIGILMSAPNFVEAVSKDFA
Experimental: (iii) High-Throughput ERK Phosphorylation Assays Using Cells Expressing Endogenous α7 NNRs
Rat pheochromocytoma (PC-12) cells (ATCC, Manassas, Va.) were cultured and maintained in F-12K media supplemented with 15% horse serum, 2.5% fetal calf serum, and 2 mM L-glutamine in poly-D lysine coated dishes at 37° C. and 5% CO2. Cells were plated in black-walled clear bottom 96-well Biocoat™ plates coated with poly-D-lysine (BD Biosciences, Bedford, Mass.) and grown for 2-3 days. Afterward, the culture media is replaced with serum-free media to starve cells overnight. On the day of the assay, cell media was removed and cells (60-80% confluent) were treated with agonist and/or modulator in Dulbecco's phosphate buffer saline (D-PBS) (with Ca^2+, Mg^2+, and 1 mg/ml D-glucose), as indicated in the result section.
PC-12 cells are treated for 10 minutes at 37° C. with test PAM compounds and then challenged with a selective α7 agonist for 5 minutes at 37° C. in a final volume of 100 μl/well, unless otherwise indicated. After treatment, media was discarded and adherent cells were immediately fixed in the presence of 150 μl/well of 3.7% formaldehyde/phosphate-buffered saline for 30-60 minutes at room temperature. […] Well intensities were quantitated and phospho-ERK signals were normalized to total ERK signals by the Odyssey software. […]

human α7 NNR = biological target: T3, human α7 NNR (Homo sapiens, UniProt P36544); test: Two-electrode voltage-clamp in Xenopus laevis oocytes: potentiation of ACh-evoked α7 currents; conditions: FIG. 1A
T3 construct: expressed in transfected cells; host or cells: Xenopus laevis oocytes injected with cRNA
T3 sequence (P36544 23-502): as the sequence (P36544 23-502) above
Experimental: (i) Two-Electrode Voltage-Clamp in Xenopus laevis Oocytes.
X. laevis oocytes were prepared for electrophysiological experiments as described in the literature (see for example, Briggs, C. A., Mckenna, D. G., and Piattina-kaplan, M., Human α7 nicotinic acetylcholine receptor responses to novel ligands, Neuropharmacology, 1995, 34: 583-590; Briggs, C. A., and Mckenna, D. G., Activation and inhibition of the human α7 nicotinic acetylcholine receptor by agonists, Neuropharmacology, 1998, 37: 1095-1102). […] Responses were measured by two-electrode voltage clamp using parallel oocyte electrophysiology test station (Abbott, Abbott Park, Ill.) (see for example, Trumbull, J. D., Maslana, E. S., McKenna, D. G., Nemcek, T. A., Niforatos, W., Pan, J. Y., Parihar, A. S., Shieh, C. C., Wilkins, J. A., Briggs, C. A., and Bertrand, D., High throughput electrophysiology using a fully automated, multiplexed recording system, Receptors Channels, 2003, 9: 19-28). […] The data were expressed as percentage potentiation over the response to 0.1 mM ACh alone. […]

| SMILES | EC50 (α7 NNRs [1]; FIG. 1B, IMR-32 cells, agonist 4-(5-phenyl-[1,3,4]oxadiazol-2-yl)-1,4-diaza-bicyclo[3.2.2]nonane at 10 μM, read-out: EC50 value, calcium fluorescence response) [µM] | Emax (α7 NNRs [1]; IMR-32, read-out: maximal effects, normalized change in fluorescence) [%] | EC50 (α7 NNRs [2]; FIG. 1C, PC-12 cells, α7 selective agonist PNU-282987) [µM] | Emax (α7 NNRs [2]; PC-12, read-out: maximal efficacy) [%] | EC50 (human α7 NNR; 0.1 mM ACh, oocytes injected with human α7 NNR cRNA, read-out: EC50 value, potentiating 0.1 mM ACh-evoked α7 currents in oocytes) [µM] | degree of potentiation (human α7 NNR; percentage potentiation over the response to 0.1 mM ACh alone) [%] | effect on calcium response to agonist plus modulator (α7 NNRs [1]; IMR-32 cells, α7 selective antagonist) |
| --- | --- | --- | --- | --- | --- | --- | --- |
| Cc1cn(-c2ccc(C(F)(F)F)cc2)/c(=N/C(=O)N2CCCC2)s1 [Example 18, N-[(2Z)-5-methyl-3-[4-(trifluoromethyl)phenyl]-1,3-thiazol-2(3H)-ylidene]pyrrolidine-1-carboxamide] | 3.4 | 110 | 1.4 | 111 | 4 | 300 |  |
| CCN1C[C@]2(COC(=O)c3ccccc3N3C(=O)C[C@H](C)C3=O)CC[C@H](OC)[C@@]34[C@@H]5C[C@H]6[C@H](OC)[C@@H]5[C@](O)(C[C@@H]6OC)[C@@](O)([C@@H](OC)[C@H]23)[C@@H]14 [methyllycaconitine, reference compound] |  |  |  |  |  |  | abolishes response |
